Source: article PMC7024211, “Antifouling Napyradiomycins from Marine-Derived Actinomycetes Streptomyces aculeolatus” (Marine Drugs, 2020)
≈ marks a conversion by molar mass, not a printed value.

How the values were obtained:
[1] = tested on: M. hydrocarbonoclasticus; assay: Biofilm inhibition assay (crystal violet); type: cell-based, Marinobacter hydrocarbonoclasticus; settings: Marinobacter nauticus; for inhibition at 31.25 µg/mL: read-out: % Biofilm Inhibition ± SEM M. hydrocarbonoclasticus
Protocol: (§1) In a 96-well plate, biofilm grown cultures of M. hydrocarbonoclasticus and C. marina were incubated with napyradiomycins (1–12) at a concentration of 31.25 µg/mL. After discarding the media, biofilm inhibition was determined from OD600 measurements of crystal violet stained cells resuspended from the plate bottom with acetic acid.
(§2) Five marine bacterial species were used as models to assess antimicrofouling activity. The biofilm-forming marine bacteria Marinobacter hydrocarbonoclasticus DSM 8798 (ATCC 49840), Cobetia marina DSM 4741, Phaeobacter inhibens DSM 17,395, and Pseusooceanicola batsensis DSM 15,984 were obtained from DSMZ (Leibniz Institute DSMZ—German collection of Microorganisms and Cell Cultures) and Micrococcus luteus. Cultures were routinely grown in liquid marine broth (Carl Roth GmbH, Karlsruhe, Germany) with agitation (180 rpm) or on agar-supplemented marine broth, at 28 °C (M. hydrocarbonoclasticus and C. marina) or 30 °C (P. inhibens and P. batsensis). M. luteus was maintained in Brain Heart Infusion broth (BHI, Becton Dickinson, GmbH, Heidelberg, Germany) with agitation (180 rpm) or on agar-supplemented BHI, at 37 °C.
(§3) The antibiofilm activity of napyradiomycins (1–12) against the five marine bacterial species was assessed in 96-well polystyrene flat bottom microplates (Nunclon Delta Surface, Thermo Scientific, Roskilde, Denmark) as previously reported. For initial screening, bacterial overnight cultures were diluted to an optical density (OD600nm) value of 0.2 and incubated statically at 28 °C (M. hydrocarbonoclasticus, C. marina), 30 °C (P. inhibens, P. batsensis) or 37 °C (M. luteus) in the 96-well microplate in the presence or absence of 31.25 µg/mL of napyradiomycins, solubilized in DMSO. After 24 h (M. hydrocarbonoclasticus, C. marina) or 48 h (P. batsensis, P. inhibens, M. luteus) incubation, the OD600nm was determined. The planktonic cells and media were discarded, and the wells were washed twice with deionized water. The biofilm was fixed for 1 h at 60 °C and stained with crystal violet 0.06% for 10 min. The dye was discarded, and the wells were again washed twice with deionized water. The stained biofilm was solubilized with 30% acetic acid and the OD600nm was determined. […] The percentage of biofilm inhibition was calculated as the amount of biofilm relative to that of the bacterial species without added compounds (with the same amount of DMSO added). CuSO4 (5 μM), a potent antifouling agent used in antifouling paints, was used as reference.
(§4) All assays were performed in triplicate, and results are representative of the average and standard error of the mean (SEM). Statistical analysis was performed in GraphPad Prism 8.0.2, using one-way ANOVA followed by a Dunnett’s multiple comparisons test against the control (species grown with the same amount of DMSO added).

[2] = tested on: P. batsensis; assay: Biofilm inhibition assay (crystal violet); type: cell-based, Pseudooceanicola batsensis; settings: Pseudooceanicola batsensis; 31.25 µg/mL; read-out: % Biofilm Inhibition ± SEM P. batsensis
Protocol: as §1, §2, §3, §4

[3] = tested on: C. marina; assay: Biofilm inhibition assay (crystal violet); type: cell-based, Cobetia marina; settings: 31.25 µg/mL
Protocol: as §1, §2, §3, §4

[4] = tested on: M. galloprovincialis plantigrade larvae; assay: Mussel plantigrade larvae settlement, 15 h acute exposure assay; type: in vivo; settings: 95% LCL, UCL in brackets; for EC50: Mytilus galloprovincialis, 15 h, read-out: EC50 [Conf. limits] larval settlement
Protocol: (§5) Mussel (M. galloprovincialis) adhesive larvae (plantigrades) were used to assess in vivo the antifouling activity of napyradiomycins (1–12) towards macrofouling. Juvenile mussel aggregates were collected at the intertidal rocky shore during low spring tides, at Memória beach, Matosinhos, Portugal (41°13′59″ N; 8°43′28″ W). At the laboratory, immediately before the bioassays, mussel plantigrade larvae were screened and isolated from the juvenile aggregates using a binocular microscope (Olympus SZX2-ILLT, Hamburg, Germany) and washed with filtered seawater to remove organic debris. Only competent plantigrade larvae (those showing foot exploratory behavior) were selected and used in the exposure bioassays following previously validated procedures. Plantigrades were exposed in 24-well polystyrene plates for 15 h in the darkness at 18 °C. DMSO was used as solvent for crude extracts, fractions and pure compounds stock and working solutions. Working solutions were prepared by successive dilutions of stock solutions in DMSO and then diluted in filtered seawater to obtain the test solutions. DMSO concentration in test solutions was always 0.1%. Four well replicates were used per condition with five larvae per well. Two negative controls, one with ultra-pure water and the other with DMSO 0.1% were included in all bioassays, as well as a positive control with 5 μM CuSO4 (a potent antifouling agent). Anti-settlement bioactivity was determined by the presence/absence of fixed byssal threads produced by each individual larvae for all the conditions tested. […] Chi-square Pearsons goodness-of-fit test was applied to data in order to determine EC50. Significance was considered at p < 0.01 for all analyses, and 95% lower and upper confidence limits [95% LCL; UCL] were presented. Therapeutic ratio (LC50/EC50) was used to evaluate the effectiveness vs. toxicity of compounds [19, 21].

[5] = as above; type: in vivo; settings: Mytilus galloprovincialis (mussel, plantigrade larvae), in vivo, no mortality at highest tested concentration 12 µg/mL
Protocol: as §5

[6] = tested on: M. luteus; assay: Biofilm inhibition assay (crystal violet); type: cell-based, Micrococcus luteus
Protocol: as §1, §2, §3, §4

[7] = tested on: P. inhibens; assay: Biofilm inhibition assay (crystal violet); type: cell-based, Phaeobacter inhibens; settings: 31.25 µg/mL
Protocol: as §1, §2, §3
All assays were performed in triplicate, and results are representative of the average and standard error of the mean (SEM). […]

[8] = tested on: M. luteus; assay: Bacterial growth inhibition assay (OD600nm); type: cell-based, Micrococcus luteus
Excerpt: as §2
(§6) The antibacterial activity of the napyradiomycins (1–12) was assessed in 96-well polystyrene flat bottom microplates (Nunclon Delta Surface, Thermo Scientific, Roskilde, Denmark) following previously reported procedures. […] After 24 h (M. hydrocarbonoclasticus, C. marina) or 48 h (P. batsensis, P. inhibens, M. luteus) incubation, the OD600nm was determined (Molecular Devices, Spectra Max 190). […] The percentage of growth inhibition was calculated as the amount of growth relative to that of the bacterial species without added compounds (with the same amount of DMSO added). CuSO4 (5 μM), a potent antifouling agent used in antifouling paints, was used as reference.
as §4, with “8.0.2 (San Diego, CA, USA),” for “8.0.2,”

[9] = tested on: Daphnia magna; settings: experimental data ref Tisler and Zagorc-Koncan, 2003; cited from earlier work
[10] = tested on: Daphnia magna; settings: experimental data ref Tisler and Zagorc-Koncan, 2003; cited from earlier work; remark: listed apart in the source
[11] = cited from earlier work
[12] = tested on: Oral rat/rabit; settings: ref Acros Organics safety data sheet; cited from earlier work
[13] = tested on: Orcorhynchus mykiss; settings: experimental data ref Tisler and Zagorc-Koncan, 2003; cited from earlier work
[14] = tested on: Scenedesmus quadricauda; settings: experimental data ref Tisler and Zagorc-Koncan, 2003; cited from earlier work
[15] = tested on: C. marina; assay: Bacterial growth inhibition assay (OD600nm); type: cell-based, Cobetia marina; settings: 31.25 µg/mL
Excerpt: as §2, §6
as §4, with “8.0.2 (San Diego, CA, USA),” for “8.0.2,”

[16] = tested on: M. hydrocarbonoclasticus; assay: Bacterial growth inhibition assay (OD600nm); type: cell-based, Marinobacter hydrocarbonoclasticus; settings: 31.25 µg/mL
Protocol: As a first screening approach, liquid cultures of M. hydrocarbonoclasticus, and C. marina in a 96-well format were analyzed for bacterial growth inhibition by percent decrease in OD600 after incubation with napyradiomycins (1–12) at 31.25 µg/mL.
as §2
The antibacterial activity of the napyradiomycins (1–12) was assessed in 96-well polystyrene flat bottom microplates (Nunclon Delta Surface, Thermo Scientific, Roskilde, Denmark) following previously reported procedures. For initial screening, bacterial overnight cultures were diluted to an optical density (OD600nm) of 0.2 and incubated statically at 28 °C (M. hydrocarbonoclasticus, C. marina), 30 °C (P. inhibens, P. batsensis) or 37 °C (M. luteus) in a 96-well microplate in the presence or absence of 31.25 µg/mL of the napyradiomycins, solubilized in DMSO. After 24 h (M. hydrocarbonoclasticus, C. marina) or 48 h (P. batsensis, P. inhibens, M. luteus) incubation, the OD600nm was determined (Molecular Devices, Spectra Max 190). […] The percentage of growth inhibition was calculated as the amount of growth relative to that of the bacterial species without added compounds (with the same amount of DMSO added). CuSO4 (5 μM), a potent antifouling agent used in antifouling paints, was used as reference.
as §4, with “8.0.2 (San Diego, CA, USA),” for “8.0.2,”

Compound `C=C(C)C(O)CC/C(C)=C/C[C@@]12OC(C)(C)[C@H](Cl)C[C@]1(Cl)C(=O)c1c(O)cc(O)cc1C2=O` (some centres unmarked) [Napyradiomycin 4, napyradiomycin A2] has an inhibition at 0.98 µg/mL ([1]; 0.98 µg/mL, read-out: % inhibition of biofilm formation M. hydro.) of 56.1 ± 5.6%, an inhibition at 1.95 µg/mL ([1]; 1.95 µg/mL, read-out: % inhibition of biofilm formation M. hydro.) of 78.1 ± 3% and an inhibition at 3.91 µg/mL ([1]; 3.91 µg/mL, read-out: % inhibition of biofilm formation M. hydro.) of 84.5 ± 2%. For the same compound, the inhibition at 7.81 µg/mL ([1]; 7.81 µg/mL, read-out: % inhibition of biofilm formation M. hydro.) was 67 ± 5.5%, the inhibition at 15.6 µg/mL ([1]; 15.6 µg/mL, read-out: % inhibition of biofilm formation M. hydro.) was 82.3 ± 1.5% and the inhibition at 31.25 µg/mL [1] was 56.9 ± 5.7%. For the same compound, the inhibition at 31.25 µg/mL [2] was 13.4 ± 0.8%, the “% Biofilm Inhibition ± SEM C. marina” value [3] was “N.I” and the EC50 [4] was 6.34 µg/mL (≈ 12.7 µM). For the same compound, the LC50 at 15 h [5] was greater than 12 µg/mL, the “% inhibition of biofilm formation M. luteus” value ([6]; 0.98 µg/mL) was 93.8 ± 4.1% and the inhibition at 0.98 µg/mL ([6]; Micrococcus luteus, 0.98 µg/mL, read-out: % inhibition of biofilm formation M. luteus) was greater than 90%. It also gave an inhibition at 1.95 µg/mL ([6]; Micrococcus luteus, 1.95 µg/mL, read-out: % inhibition of biofilm formation M. luteus) of 91.7 ± 0.9%, an inhibition at 3.91 µg/mL ([6]; Micrococcus luteus, 3.91 µg/mL, read-out: % inhibition of biofilm formation M. luteus) of 100 ± 0.4% and an inhibition at 7.81 µg/mL ([6]; Micrococcus luteus, 7.81 µg/mL, read-out: % inhibition of biofilm formation M. luteus) of 86.7 ± 3%. For the same compound, the inhibition at 15.6 µg/mL ([6]; Micrococcus luteus, 15.6 µg/mL, read-out: % inhibition of biofilm formation M. luteus) was 88.8 ± 4.2%, the inhibition at 31.25 µg/mL ([6]; Micrococcus luteus, 31.25 µg/mL, read-out: % Biofilm Inhibition ± SEM M. luteus) was 97 ± 1.2% and the “% Biofilm Inhibition ± SEM P. inhibens” value [7] was “N.I”. For the same compound, the inhibition at 0.98 µg/mL ([8]; Micrococcus luteus, 0.98 µg/mL) was 38.7 ± 1.9%, the inhibition at 1.95 µg/mL ([8]; Micrococcus luteus, 1.95 µg/mL) was 51.7 ± 4.5% and the inhibition at 3.91 µg/mL ([8]; Micrococcus luteus, 3.91 µg/mL) was 61.2 ± 3.7%. The inhibition at 7.81 µg/mL ([8]; Micrococcus luteus, 7.81 µg/mL) was 53.3 ± 5.7%, the inhibition at 15.6 µg/mL ([8]; Micrococcus luteus, 15.60 µg/mL) was 60.1 ± 8.5% and the inhibition at 31.25 µg/mL ([8]; Micrococcus luteus, 31.25 µg/mL) was 72.5 ± 7.7%. For the same compound, the “% growth inhibition M. luteus” value ([8]; all tested concentrations) was “approximately 50%”.

In the case of `[Cu]` [Copper], the “Chronic toxicity Daphnia magna 21 day NOEC” value [9] is given as 0.015 mg/L, the “Aquatic toxicity Daphnia magna EC50 48 hour” value [10] is given as 0.030 µg/mL and the ATE category [11] is given as 3 (category 3, 50 < ATE ≤ 300 mg/Kg). For the same compound, the “Acute toxicity Oral rat/rabit LD50” value [12] was 140 mg/kg, the “Aquatic toxicity Fish Orcorhynchus mykiss 96 hour LC50” value [13] was 0.48 µg/mL and the “Aquatic toxicity Alga Scenedesmus quadricauda 72 hour IC50” value [14] was 0.18 µg/mL.

In the case of `Cc1c(O)cc2c(c1O)C(=O)C1(Cl)CC(Cl)C(C)(C)OC1(CC1C(C)(O)CCC(Cl)C1(C)C)C2=O` (centres unmarked) [Napyradiomycin 10, napyradiomycin A80915C], the inhibition at 31.25 µg/mL [1] is reported as 25.1 ± 10.2%, the “% Biofilm Inhibition ± SEM C. marina” value [3] is reported as “N.I” and the “% growth inhibition C. marina” value [15] is reported as “did not inhibit growth”. The “EC50 [Conf. limits] larval settlement” value [4] was 0.102 [0.072; 0.140] µg/mL, the EC50 [4] was 0.1 µg/mL (≈ 0.183 µM) and the LC50 at 15 h [5] was greater than 12 µg/mL. The “% growth inhibition M. hydrocarbonoclasticus” value [16] was “did not inhibit growth”.
